Laboratory results from article PMC4160091 (Frontiers in Cellular Neuroscience, 2014).
Entries after “also recorded” stand apart in the source; their conditions may differ.

Assays:
[1] = target: T1, NT binding sites, human hypothalamus (neonate/infant) (Homo sapiens, UniProt P30989); assay: Levocabastine competition with specific 125I-NT binding (competition experiments and autoradiography); conditions: all hypothalamic nuclei and areas in all cases
T1 construct: The frozen hypothalami were then sliced as 20 μm thick coronal sections; from tissue; host or cells: postmortem human neonate/infant hypothalamus, 20 μm frozen coronal sections
T1 sequence (P30989 whole entry): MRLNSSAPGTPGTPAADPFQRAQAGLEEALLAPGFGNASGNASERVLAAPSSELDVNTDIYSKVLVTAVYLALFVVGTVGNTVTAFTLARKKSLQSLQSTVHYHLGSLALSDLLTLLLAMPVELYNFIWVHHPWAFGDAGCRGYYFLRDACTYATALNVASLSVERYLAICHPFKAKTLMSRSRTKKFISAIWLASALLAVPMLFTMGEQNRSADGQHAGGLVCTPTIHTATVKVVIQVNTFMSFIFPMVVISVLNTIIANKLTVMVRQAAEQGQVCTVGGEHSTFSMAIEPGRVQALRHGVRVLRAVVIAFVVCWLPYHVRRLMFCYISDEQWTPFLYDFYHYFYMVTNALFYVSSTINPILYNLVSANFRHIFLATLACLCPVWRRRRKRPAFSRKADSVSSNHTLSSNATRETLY
Experimental: After incubation, the slides were washed with ice cold buffer four times for 2 min each and rapidly dried with cold air. Labeled sections and iodinated standards (Amersham, Courtaboeuf Cedex, France) were then apposed to 3H sensitive Ultrofilm (Amersham) in Amersham exposure cassettes. After 2 weeks exposure in dark conditions at 4°C, the film was developed in Kodak D19 (Eastman Kodak, Rochester, NY, USA) for 3 min, dipped in water and fixed with Kodak rapid fixer for 10 min.
Kinetics (IC50 and KD) analysis was computed by the method of [Parker and Waud (1971)].

NT2 receptor = conditions: reference not given; cited from earlier work
NT binding sites = conditions: rat, 5–9 days after the birth; ref Lépée-Lorgeoux et al., 1999; cited from earlier work
Excerpt: This is similar to that reported previously for somatostatin and benzodiazepine binding sites ([Najimi et al., 1991], [2001]). […] We cannot exclude also that these hypothalamic structures have not yet completed their neuronal maturation ([Kopp et al., 1992]). Studies on older ages should reveal the ...

Compound | inhibition of specific 125I-NT binding by levocabastine [1] | affinity for the NT2 receptor, in words (NT2 receptor) | number of NT binding sites after blockade of neurotransmission (NT binding sites)
C[C@@H]1CN([C@H]2CC[C@](C#N)(c3ccc(F)cc3)CC2)CC[C@]1(C(=O)O)c1ccccc1 [levocabastine] | insensitivity to levocabastine; also recorded: did not inhibit specific binding of ^125I-NT | has affinity for the NT2 receptor | –
COc1cccc(OC)c1-c1cc(C(=O)NC2(C(=O)O)C3CC4CC(C3)CC2C4)nn1-c1ccnc2cc(Cl)ccc12 (stereo not drawn) [SR 48692] | – | – | increases greatly the number of NT binding sites
